SMILES strings stand for the structures.

Control and IC50 data for five compounds are collected here from ChEMBL document CHEMBL1126537, “Synthesis and biological activity of sulfoximine-modified myristic acid analogues” (Bioorg Med Chem Lett, 1993).

The species entered for one experiment is Mus musculus. The experiment can be described thus: Percentage control against LPS stimulated IL-1-alpha formation in murine peritoneal macrophages was measured by IL-1-alpha ELISA. The format is functional. More on the design: concentration or dose not given beside the values.
The subject of experiment [1] is Moloney murine leukemia virus. The experiment can be described thus: Compound was tested for its antagonistic activity against Moloney leukemia virus (MoLV) replication. The format is functional, organism-based.

A word on the IC50: it is the concentration needed to halve the response being measured. `CCCCCCCCCCCCC[S+](=N)([O-])CC(=O)OCC` (stereo not given) yielded a Control in the experiment listed under Mus musculus of 190%. The compound further returned an IC50 in experiment [1] of 24 µM.

As to `CCCCCCCCCCCCC[S+](=N)([O-])CCC` (stereo not given), the Control in the experiment filed under Mus musculus is 206%. Moreover, in experiment [1], the 50% inhibitory concentration (IC50) was found to be 10 µM.

`CCCCCCCCCCCCC[S+](C)(=N)[O-]` (stereo not given) showed a Control in the experiment listed under Mus musculus of 123%. Further, it took 5 µM to reach half-maximal inhibition in experiment [1] (IC50).

Consider `CCCCCCCCCCCCC[S+](=N)([O-])Cc1ccccc1` (stereo not given), for which the Control in the experiment listed under Mus musculus came out at 326%. For the same compound, the half-maximal inhibitory concentration (IC50) in experiment [1] amounted to 15 µM.

Consider `C/C=C/C/C=C/CCC(=O)[C@H]1O[C@H]1C(N)=O` [CERULENIN], for which the Control in the experiment listed under Mus musculus was determined as 170%. Besides, in experiment [1], the IC50 was 2.7 µM.
